Test results taken from PubChem BioAssay (NCI).
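Exposure lasted 48 hours, with cells grown in 96-well plates and compounds tested at five concentrations. The concentration for 50% growth inhibition is given as GI50. TGI denotes the concentration required for complete inhibition of growth.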

How the values were obtained:
Assay in all cases: NCI anticancer screen, dose series, 48 h
T-47D breast = tested on: T-47D breast
SF-295 CNS = tested on: SF-295 CNS
U251 CNS = tested on: U251 CNS
HCT-116 colon = tested on: HCT-116 colon
UACC-62 melanoma = tested on: UACC-62 melanoma
HCT-15 colon = tested on: HCT-15 colon
MCF7 breast = tested on: MCF7 breast
HOP-62 NSCLC = tested on: HOP-62 NSCLC
LOX IMVI melanoma = tested on: LOX IMVI melanoma
NCI-H226 lung = tested on: NCI-H226 lung
CAKI-1 renal = tested on: CAKI-1 renal

Compound	TGI (T-47D breast) [µM]	TGI (SF-295 CNS) [µM]	TGI (U251 CNS) [µM]	TGI (HCT-116 colon) [µM]	TGI (UACC-62 melanoma) [µM]	TGI (HCT-15 colon) [µM]	TGI (MCF7 breast) [µM]	TGI (HOP-62 NSCLC) [µM]	TGI (LOX IMVI melanoma) [µM]	TGI (NCI-H226 lung) [µM]	TGI (CAKI-1 renal) [µM]	GI50 (SF-295 CNS) [µM]	GI50 (U251 CNS) [µM]	GI50 (HCT-15 colon) [µM]	GI50 (MCF7 breast) [µM]	GI50 (HOP-62 NSCLC) [µM]	GI50 (CAKI-1 renal) [µM]
CCCCCCCCCCCCCCCCCCOCC(O)COP(=O)(O)OCC1OC(n2cc(F)c(=O)[nH]c2=O)CC1O (stereo unspecified)	38.8	19	22.4	19.6	9.7	23.7	48.3	4.88	15.1	> 53.8	26.8	–	–	–	–	–	–
O=C(O)c1ccc(Nc2nc3cc(C(F)(F)F)ccc3nc2C(=O)O)cc1	–	> 100	> 100	> 100	–	> 100	> 100	> 100	> 100	> 100	> 100	–	–	–	–	–	–
COC(=O)C(C)Sc1nc2cc(Cl)ccc2s1 (stereo unspecified)	> 100	> 100	> 100	> 100	> 100	> 100	> 100	> 100	–	> 100	> 100	–	–	–	–	–	–
CCCCSc1n/c(=C\c2ccc(N(C)C)cc2)c2nnnn12	> 100	> 100	> 100	> 100	> 100	> 100	> 100	> 100	> 100	> 100	> 100	–	–	–	–	–	–
N#CC1=CNc2sccc2S1(=O)=O	> 100	> 100	> 100	> 100	> 100	> 100	> 100	> 100	> 100	> 100	> 100	–	–	–	–	–	–
OCCN=C1Nc2ccc(Cl)cc2C(=S)N2CSC[C@@H]12	> 100	> 100	> 100	> 100	> 100	> 100	> 100	> 100	–	–	> 100	–	–	–	–	–	–
COc1ccc(CNc2nc(NCc3ccc(OC)cc3)nc(N3CCOCC3)n2)cc1	> 100	8.98	> 100	> 100	> 100	6.21	> 100	> 100	–	> 100	6.9	–	–	–	–	–	–
COc1cc(/C=C2/SC(c3ccccc3)N(c3cccc([N+](=O)[O-])c3)C2=O)cc(OC)c1OC (stereo unspecified)	> 100	> 100	> 100	> 100	> 100	> 100	> 100	> 100	> 100	> 100	> 100	–	–	–	–	–	–
COc1ccc(NC2Oc3cc4c(cc3C(c3cc(OC)c(O)c(OC)c3)C2C)OCO4)cc1 (stereo unspecified)	> 100	60.5	35.1	29.6	35.2	11.3	> 100	–	–	93.6	30	–	–	–	–	–	–
CCOC(=O)c1cn(-c2ccc(Cl)cc2)c(=O)n2c1nc1ccccc12	> 100	> 100	> 100	> 100	> 100	> 100	> 100	> 100	> 100	> 100	> 100	–	–	–	–	–	–
C=C1C[C@]23C[C@@]1(O)CC[C@H]2[C@@]12C=C[C@H](O)[C@@](C)(C(=O)O1)[C@H]2[C@@H]3C(=O)O	–	> 100	> 100	> 100	> 100	> 100	–	> 100	> 100	> 100	> 100	–	–	–	–	–	–
CSc1ncc2c(n1)-c1ccccc1OC2N1CCCC1 (stereo unspecified)	> 100	> 100	> 100	> 100	> 100	> 100	> 100	–	> 100	> 100	83.4	–	–	–	–	–	–
CC(C)n1c(=O)n(-c2ccccc2)n(C(C)(C)C)c1=O	–	> 100	> 100	> 100	> 100	> 100	> 100	> 100	> 100	> 100	> 100	–	–	–	–	–	–
CSC(=NC1=NC(C(F)(F)F)(C(F)(F)F)N=C(c2ccccc2)O1)SC	24.2	> 100	75.2	16.3	64.2	33.5	60.5	59	42.8	83.9	44.8	–	–	–	–	–	–
CCOP(=O)(OCC)C(Nc1ccc(F)cc1)c1cccc([N+](=O)[O-])c1 (stereo unspecified)	–	> 100	> 100	> 100	> 100	> 100	> 100	> 100	> 100	> 100	> 100	–	–	–	–	–	–
COS(=O)c1cc(Cl)cc(Cl)c1O (stereo unspecified)	–	–	> 100	> 100	> 100	–	–	> 100	> 100	–	–	–	–	–	–	–	–
CSC1SCC2C(=O)N(C)C3(CC3C)C(=O)OCC(NC(=O)c3nc4ccccc4cc3O)C(=O)NC(C)C(=O)N(C)C1C(=O)N(C)C1(CC1C)C(=O)OCC(NC(=O)c1nc3ccccc3cc1O)C(=O)NC(C)C(=O)N2C (stereo unspecified)	> 100	–	< 0.0001	16.4	< 0.0001	–	10.3	–	< 0.0001	< 0.0001	0.0135	–	–	–	–	–	–
COc1c/c(=C2/C=c3ccccc3=N2)[nH]/c1=C/c1[nH]c(C)cc1C	–	0.628	1.52	–	–	> 100	2.58	0.459	–	–	1.2	0.149	0.0454	0.0363	0.0647	0.0458	0.0346
O=C(NCCO)c1ccc(Cl)cc1	> 100	> 100	> 100	> 100	> 100	> 100	–	> 100	> 100	> 100	> 100	–	–	–	–	–	–
O=C(N=Nc1ccccc1Br)NNc1ccccc1Br	> 100	–	> 100	> 100	> 100	> 100	–	> 100	> 100	> 100	> 100	–	–	–	–	–	–
